Data from article PMC4646981, “Protein Kinase A Governs Oxidative Phosphorylation Kinetics and Oxidant Emitting Potential at Complex I” (Frontiers in Physiology, 2015).

Target: T1, complex I (mitochondrial electron transport system; multi-subunit)
T1 construct: gene Mtnd1; native complex I in freeze-fractured fragments of isolated skeletal muscle mitochondria
Test: NADH oxidation (complex I activity) assay in mitochondrial fragments, dose-response
Type: biochemical, Mus musculus

**Q.** Which IC50 does the source give for `CC(Sc1nc2ccccc2[nH]1)C(=O)N/N=C/c1cc(Br)ccc1O` (racemic) [KH7] here?
**A.** 3.7 µM
